# Target: Histone-lysine N-methyltransferase, H3 lysine-79 specific (Homo sapiens, UniProt Q8TEK3)
# Experiment: Inhibition of recombinant human N-terminal GST-tagged DOT1L (2 to 416 residues) expressed in Escherichia coli assessed as reduction in histone H3 lysine-N-methyltransferase activity using nucleosomes after 3 hrs in presence of SAM by AlphLisa assay
# Chain of Histone-lysine N-methyltransferase, H3 lysine-79 specific (Q8TEK3 whole entry, the tested form may be a part): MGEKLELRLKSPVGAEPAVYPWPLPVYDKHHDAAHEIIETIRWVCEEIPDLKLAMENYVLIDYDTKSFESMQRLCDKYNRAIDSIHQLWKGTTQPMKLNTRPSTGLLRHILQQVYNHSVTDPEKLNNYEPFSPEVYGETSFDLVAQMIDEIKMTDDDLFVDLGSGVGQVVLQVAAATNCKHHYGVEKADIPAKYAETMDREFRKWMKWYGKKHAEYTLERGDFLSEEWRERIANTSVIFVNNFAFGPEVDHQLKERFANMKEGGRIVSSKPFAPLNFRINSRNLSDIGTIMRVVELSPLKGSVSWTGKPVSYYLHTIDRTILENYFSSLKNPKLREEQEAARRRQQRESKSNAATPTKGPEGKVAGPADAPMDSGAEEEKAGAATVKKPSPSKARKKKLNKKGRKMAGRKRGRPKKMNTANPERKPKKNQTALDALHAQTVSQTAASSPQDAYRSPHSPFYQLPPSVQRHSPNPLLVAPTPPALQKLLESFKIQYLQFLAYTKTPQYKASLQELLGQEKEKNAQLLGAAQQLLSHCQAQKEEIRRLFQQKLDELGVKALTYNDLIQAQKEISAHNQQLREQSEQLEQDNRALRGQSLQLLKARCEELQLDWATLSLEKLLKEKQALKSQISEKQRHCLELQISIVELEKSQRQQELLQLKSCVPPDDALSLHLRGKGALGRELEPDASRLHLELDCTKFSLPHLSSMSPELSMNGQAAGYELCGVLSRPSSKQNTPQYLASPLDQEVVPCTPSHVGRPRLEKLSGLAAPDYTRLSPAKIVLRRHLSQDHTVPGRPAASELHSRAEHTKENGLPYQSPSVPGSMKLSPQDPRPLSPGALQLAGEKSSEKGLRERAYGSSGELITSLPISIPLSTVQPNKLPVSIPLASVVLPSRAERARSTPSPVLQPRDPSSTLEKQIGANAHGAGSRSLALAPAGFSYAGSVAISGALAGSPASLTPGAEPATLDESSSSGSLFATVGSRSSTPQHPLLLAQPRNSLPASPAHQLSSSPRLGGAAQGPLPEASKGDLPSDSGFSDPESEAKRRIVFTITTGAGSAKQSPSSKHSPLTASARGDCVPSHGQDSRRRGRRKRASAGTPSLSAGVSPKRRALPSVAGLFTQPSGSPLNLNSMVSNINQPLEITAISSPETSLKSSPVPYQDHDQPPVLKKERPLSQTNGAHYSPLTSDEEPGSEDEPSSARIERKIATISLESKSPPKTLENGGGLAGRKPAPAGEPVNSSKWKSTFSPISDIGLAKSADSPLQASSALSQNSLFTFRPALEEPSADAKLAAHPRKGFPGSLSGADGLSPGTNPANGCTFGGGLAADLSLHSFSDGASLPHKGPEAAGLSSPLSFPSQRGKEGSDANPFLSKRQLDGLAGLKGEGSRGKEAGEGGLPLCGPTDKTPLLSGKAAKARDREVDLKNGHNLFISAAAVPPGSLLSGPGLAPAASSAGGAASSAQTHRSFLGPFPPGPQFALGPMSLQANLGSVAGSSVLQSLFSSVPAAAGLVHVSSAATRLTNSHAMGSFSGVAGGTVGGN
row,IC50 [µM],Compound
1,0.00634,CC(C)N(CCCNC(=O)Nc1ccc(C(C)(C)C)cc1)[C@@H](C)[C@H]1O[C@@H](n2cnc3c(N)ncnc32)[C@H](O)[C@@H]1O
2,1.43,C[C@@H]([C@H]1O[C@@H](n2cnc3c(N)ncnc32)[C@H](O)[C@@H]1O)N(C1CCC1)C1CC(CCc2nc3cc(C(C)(C)C)ccc3[nH]2)C1 (some centres undefined)
3,0.69,C[C@H](NC1CC(CCc2nc3cc(C(C)(C)C)ccc3[nH]2)C1)[C@H]1O[C@@H](n2cnc3c(N)ncnc32)[C@H](O)[C@@H]1O (some centres undefined)
4,2.16,C[C@@H]([C@H]1O[C@@H](n2cnc3c(N)ncnc32)[C@H](O)[C@@H]1O)N(C1CC(CCc2nc3cc(C(C)(C)C)ccc3[nH]2)C1)C1CC(CCc2nc3cc(C(C)(C)C)ccc3[nH]2)C1 (some centres undefined)
